The record followed here is ChEMBL document CHEMBL1649118, “Tissue accumulation of cephalothin in burns: a comparative study by microdialysis of subcutaneous interstitial fluid cephalothin concentrations in burn patients and healthy volunteers” (Antimicrob Agents Chemother, 2009).

In data set [1] the test system is Plasma. Nature of the data set: Fraction unbound in burn patient at 1g, iv administered as 5 mins infusion by microdialysis. The conditions noted are these: human, in vivo. The format is ADME, organism-based.
Data set [2] is described as follows: Fraction unbound in healthy human interstitial fluid at 1g, iv administered as 5 mins infusion by microdialysis. The format is ADME, organism-based. The conditions noted are these: in vivo.
A short description of data set [3]: T>MIC in Staphylococcus aureus infected burn patient at burnt tissue site at 1g, iv administered as 5 mins infusion. The format is functional.
The test system of a further data set is Staphylococcus aureus. As to the kind of experiment: Antimicrobial activity against Staphylococcus aureus. It is filed as functional.
Data set [4] can be described thus: Time during which concentration exceeded the 5 X MIC for Staphylococcus aureus infected burn patient at nonburnt tissue site at 1g, iv administered as 5 mins infusion. It is filed as functional.
The nature of data set [5]: Time during which concentration exceeded the 5 X MIC for Staphylococcus aureus in healthy human at 1g, iv administered as 5 mins infusion. It is filed as functional.
The nature of data set [6]: Fraction unbound in burn patient interstitial fluid at burn site at 1g, iv administered as 5 mins infusion by microdialysis. Particulars: human, in vivo. It is filed as ADME, organism-based.
Data set [7] is described as follows: Drug level in subcutaneous interstitial fluid at nonburnt site of patient at 1 g, iv administered as 5 mins infusion measured after 240 min. The conditions noted are these: human, read-out: Drug uptake. It is filed as ADME, organism-based.
Data set [8] can be described thus: T>MIC in Staphylococcus aureus infected burn patient at nonburnt tissue site at 1g, iv administered as 5 mins infusion. It is filed as functional.
Data set [9] in a line: T>MIC in healthy human at 1g, iv administered as 5 mins infusion. The format is functional.
Data set [10] is described as follows: Plasma protein binding in healthy human at 1g, iv administered as 5 mins infusion. The format is ADME, organism-based. Particulars: read-out: PPB (converted).
Data set [11] can be described thus: Drug level in subcutaneous interstitial fluid at burnt site of patient at 1 g, iv administered as 5 mins infusion measured after 240 min. The format is ADME, organism-based. Particulars: human, read-out: Drug uptake.
A short description of data set [12]: Time during which concentration exceeded the 5 X MIC for Staphylococcus aureus infected burn patient at burnt tissue site at 1g, iv administered as 5 mins infusion. It is filed as functional.
Data set [13] can be described thus: Plasma protein binding in burn patient at 1g, iv administered as 5 mins infusion. Particulars: human, read-out: PPB (converted). The format is ADME, organism-based.
Data set [14] deals with Plasma. As to the kind of experiment: Fraction unbound in healthy human plasma at 1g, iv administered as 5 mins infusion by microdialysis. The conditions noted are these: in vivo. The format is ADME, organism-based.
Data set [15] can be described thus: Drug level in subcutaneous interstitial fluid of healthy human at 1 g, iv administered as 5 mins infusion measured after 240 min. The format is ADME, organism-based. Particulars: read-out: Drug uptake.
Data set [16] can be described thus: Fraction unbound in burn patient interstitial fluid at nonburn site at 1g, iv administered as 5 mins infusion by microdialysis. The format is ADME, organism-based. Particulars: human, in vivo.

The term MIC denotes the smallest concentration in the dilution series that meets the test's criterion for growth inhibition. Low values mean a more susceptible organism, high ones a less susceptible organism.

Converted amounts (≈) assume the structure as drawn.

In the case of `CC(=O)OCC1=C(C(=O)O)N2C(=O)[C@@H](NC(=O)Cc3cccs3)[C@H]2SC1` [CEPHALOTHIN], the Cp in the data set with Plasma [1] came out at 38.7 mg/L; in data set [2], 8.6 mg/L; in data set [6], 14.5 mg/L; in the data set with Plasma [14], 17.6 mg/L; in data set [16], 8.9 mg/L. The “T>MIC” value in [3] worked out at 285 min; in data set [8], 336 min; in [9], 160 min. Besides, in the data set with Staphylococcus aureus, the MIC was 0.2 µg/mL (≈ 0.504 µM). Further, the T came out at 219 min in data set [4], 96 min in data set [5] and 191 min in data set [12]. In addition, the concentration at 4 h amounted to 3060 ng/mL in [7], 2840 ng/mL in data set [11] and 540 ng/mL in data set [15]. Also, the fraction unbound at 5 min in data set [10] is 0.292; in [13], 0.42.
